Test: Antagonist activity at CRTh2 receptor in human whole blood assessed as inhibition of PGD2-induced eosinophil shape change preincubated for 10 mins followed by PGD2 addition measured after 4 mins by side scatter analysis

Cc1nn(Cc2ccccc2S(=O)(=O)c2ccccc2)c(C)c1CC(=O)O
IC50: 1700 nM

Cc1c(CC(=O)O)c(=O)[nH]n1Cc1ccccc1S(=O)(=O)c1ccccc1
IC50: 1000 nM

Cc1c(CC(=O)O)c(-c2ccc(Cl)cc2)nn1Cc1ccccc1S(=O)(=O)c1ccccc1
IC50: 8100 nM

Cc1c(CC(=O)O)c(-c2ccccc2)nn1Cc1ccccc1S(=O)(=O)c1ccccc1
IC50: 2400 nM

Cc1nn(-c2cccc(NC(=O)[C@H]3C[C@@H]3c3ccccc3)c2)c(C)c1CC(=O)O
IC50: 2100 nM

— BindingDB's records for doi:10.1016/j.bmcl.2013.03.093 (Rhône-Poulenc Rorer, 2013)
